Measurements reported in ChEMBL document CHEMBL1151028, “Synthesis of -hydroxy statine through a facially selective osmylation of a chiral -amido crotonate” (Bioorg Med Chem Lett, 1995).
Where a SMILES comes first, the peptide text is derived from it. [ ]: non-standard residue; d: D form. The star is where a group is joined. Sta = CC(C)C[C@H](N)[C@@H](O)CC(=O)O; Boc = CC(C)(C)OC(=O)*; GABA = NCCCC(=O)O

Biological target: T1, Renin (Homo sapiens, UniProt P00797)
T1 sequence (P00797 whole entry): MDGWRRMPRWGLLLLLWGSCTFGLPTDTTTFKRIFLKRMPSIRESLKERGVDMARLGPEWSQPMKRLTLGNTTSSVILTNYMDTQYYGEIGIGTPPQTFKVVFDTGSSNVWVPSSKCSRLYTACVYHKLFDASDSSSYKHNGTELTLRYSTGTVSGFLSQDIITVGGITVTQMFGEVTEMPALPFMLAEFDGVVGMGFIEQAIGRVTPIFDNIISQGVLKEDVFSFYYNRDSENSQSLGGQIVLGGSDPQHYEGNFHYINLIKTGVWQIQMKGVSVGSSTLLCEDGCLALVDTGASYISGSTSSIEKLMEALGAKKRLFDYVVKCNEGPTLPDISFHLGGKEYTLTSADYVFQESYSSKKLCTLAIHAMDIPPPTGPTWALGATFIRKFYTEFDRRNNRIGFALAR
Experiment: Inhibitory activity against renin was determined

SMILES | IC50 [µM]
CC(C)C[C@H](NC(=O)[C@H](Cc1c[nH]cn1)NC(=O)[C@H](Cc1ccccc1)NC(=O)OC(C)(C)C)[C@@H](O)[C@H](O)C(=O)NCCCC(=O)O | 3
CC(C)C[C@H](NC(=O)[C@H](Cc1cnc[nH]1)NC(=O)[C@H](Cc1ccccc1)NC(=O)OC(C)(C)C)[C@H](O)[C@@H](O)C(=O)NCCCC(=O)O | 63
CC(C)C[C@H](NC(=O)[C@H](Cc1cnc[nH]1)NC(=O)[C@H](Cc1ccccc1)NC(=O)OC(C)(C)C)[C@@H](O)CC(=O)NCCCC(=O)O (Boc-FH[Sta][GABA]-OH) | 3.2
